# Paper PMC8868193 (Antibiotics, 2022)
# Where two headings read alike, the source gives them in different places. Non-standard residues stand in square brackets, D forms with d. Residues, ends and D or L forms follow the SMILES beside them. NMeA = CN[C@@H](C)C(=O)O
# Legend:
# Candida albicans SC5314 = test: microbe, parasite or virus in culture; conditions: for MIC: Candida albicans; for Anti-Fungal MICs: SC5314, pH 7
# Protocol: Candida albicans SC5314 was used as a test strain for the antifungal and synergistic antifungal bioassay. Checkerboard assays were carried out as described previously. Overnight cultures were chosen to prepare the strain suspension with RPMI 1640 medium. RPMI 1640 was purchased from Invitrogen, and was used according to the manufacturer’s protocol, by supplementing 2% glucose, 3.45% MOS, then adjusting the pH to 7.0. Compounds were dissolved in DMSO. Final concentrations ranged from 0.002 to 2 μg/mL for rapamycin and 0.39 to 25 μg/mL for peptide-like compounds, respectively. Rapamycin was 2-fold diluted from 1 to 11 (column), while selected compounds were 2-fold diluted from A to G (row) of the 96-well microtiter plate. The fractional inhibitory concentration index (FICI) is defined as the sum of the MIC of each drug when used in combination divided by the MIC of the drug used alone. Synergism and antagonism were defined by FICI of ≤0.5 and >4, respectively.
# HDAC8 = molecular target: T1, HDAC8 (Homo sapiens, UniProt Q9BY41); test: HDAC activity assay (HDAC8 Deacetylase Fluorometric (Human) Assay Kit); type: biochemical; conditions: triplicate
# T1 construct: purchased Abnova KA4444
# T1 sequence (Q9BY41 1-377): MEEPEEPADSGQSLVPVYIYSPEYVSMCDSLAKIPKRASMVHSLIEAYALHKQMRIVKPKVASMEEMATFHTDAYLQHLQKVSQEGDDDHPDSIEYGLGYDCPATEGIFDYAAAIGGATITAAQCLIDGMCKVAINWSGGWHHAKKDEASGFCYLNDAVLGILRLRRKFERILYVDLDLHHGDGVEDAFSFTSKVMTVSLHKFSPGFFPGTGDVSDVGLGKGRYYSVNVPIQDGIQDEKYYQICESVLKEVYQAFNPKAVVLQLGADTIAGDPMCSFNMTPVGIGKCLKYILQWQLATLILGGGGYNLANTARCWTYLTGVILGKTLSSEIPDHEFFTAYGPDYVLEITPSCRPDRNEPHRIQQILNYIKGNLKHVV
# Protocol: The HDAC activity of the compounds was measured using an HDAC8 Deacetylase Fluorometric (Human) Assay Kit (Cat KA4444, Abnova, Taipei, Taiwan) according to the manufacturer’s instructions. Fluorescence signal was detected with excitation at 360 nm and emission at 460 nm using a fluorescence microplate reader (Perkin-Elmer, Waltham, MA, USA). Experiments were performed in triplicate and data were analyzed using GraphPad Prism (version 6.0), Kd values were calculated by nonlinear curve fitting using a 1-site binding (hyperbola) model (Y = Bmax*X/(Kd + X).
# [1] = set-up: method as in 3 sources, ref [9] = [9]; PMID 16839576; doi:10.1016/j.phytochem.2006.05.033; 9. Walton J.D. HC-toxin Phytochemistry 2006 67 1406 1413 10.1016/j.phytochem.2006.05.033 16839576 ||| ref [16] = [16]; PMID 35747077; doi:10.1039/D0RA09388B; 16. Lin X. Chai L. Zhu H.R. Zhou Y. Lin. H.W. Applying molecular networking for targeted isolation of depsipeptides RSC Adv. 2021 11 2774 10.1039/D0RA09388B PMC9134009 35747077 ||| ref [17] = [17]; PMID 32528927; doi:10.3389/fchem.2020.00397; 17. Sala G.D. Mangoni A. Costantino V. Teta R. Identification of the biosynthetic gene cluster of thermoactinoamides and discovery of new congeners by integrated genome mining and MS-Based molecular n; conditions: literature, cited from earlier work
# [2] = literature; ref [10]; cited from earlier work
# Excerpt: Fungal natural products play a prominent role in the development of pharmaceutical agents.
# [3] = SC5314, pH 7, read-out: Anti-Fungal MICs
compound,measurement,setting,value
"C[C@@H]1[C@H](O)[C@@H](C)/C=C/C=C/C=C/C=C/C=C/C=C/C=C/[C@H](O[C@@H]2O[C@H](C)[C@@H](O)[C@H](N)[C@@H]2O)C[C@@H]2O[C@](O)(C[C@@H](O)C[C@@H](O)[C@H](O)CC[C@@H](O)C[C@@H](O)CC(=O)O[C@H]1C)C[C@H](O)[C@H]2C(=O)O [Amphotericin B, reference compound]",MIC,Candida albicans SC5314; [3],0.5 µM
same,MIC,"Candida albicans SC5314; SC5314, pH 7, read-out: Synergistic Anti-Fungal MICs",0.125 µM
"CC[C@H](C)[C@@H]1NC(=O)[C@H](C(C)C)NC(=O)[C@@H](Cc2ccc(OC)cc2)NC(=O)[C@H](C)N(C)C1=O [Compound 1, cyclo-[L-N-Me-Ala-L-Ile-L-Val-D-O-Me-Tyr]] (cyclo(I[NMeA][dY](Me)V))",Anti-Fungal MICs,Candida albicans SC5314,>100 µM
same,IC50,"HDAC8; text: HDAC at the cell level, method: HDAC8 fluorometric kit, ex 360 nm / em 460 nm, read-out: HDAC inhibition IC50",~70 µM
"CC[C@H](C)[C@@H]1NC(=O)[C@H]([C@@H](C)O)NC(=O)[C@@H](Cc2ccc(OC)cc2)NC(=O)[C@H](C)N(C)C1=O [Compound 2, cyclo-[L-N-Me-Ala-L-Ile-L-Thr-D-O-Me-Tyr]] (cyclo([NMeA][dY](Me)TI))",Anti-Fungal MICs,Candida albicans SC5314,>100 µM
same,antifungal activity alone (in words),"Candida albicans SC5314; compound alone, C. albicans",no antifungal effects alone
same,Synergistic Anti-Fungal MICs,"Candida albicans SC5314; with 0.008 μM rapamycin, C. albicans SC5314, checkerboard, RPMI 1640, pH 7.0, start concentration 25 μM, 90% growth inhibition",6.25 µM
same,concentration of compound required with rapamycin for achieving 90% growth inhibition (checkerboard MIC),"Candida albicans SC5314; with 0.008 μM rapamycin, Candida albicans SC5314",6.25 µM
same,HDAC inhibitory activity (in words),HDAC8; HDAC8 fluorometric kit,weak HDAC (histone deacetylase) inhibitory activity
"CO[C@H]1C[C@@H]2CC[C@@H](C)[C@@](O)(O2)C(=O)C(=O)N2CCCC[C@H]2C(=O)O[C@H]([C@H](C)C[C@@H]2CC[C@@H](O)[C@H](OC)C2)CC(=O)[C@H](C)/C=C(\C)[C@@H](O)[C@@H](OC)C(=O)[C@H](C)C[C@H](C)/C=C/C=C/C=C/1C [Rapamycin, reference compound]",MIC,Candida albicans SC5314; [3],0.5 µM
same,concentration of rapamycin required in combination for achieving 90% growth inhibition (checkerboard MIC),"Candida albicans SC5314; together with 6.25 μM of compounds 1 and 2, Candida albicans SC5314",0.008 µM
HC toxin,cytotoxic / antimitogenic activity (in words),[1]; ref [9],cytotoxic and antimitogenic activities
apicidin,antiprotozoan activity (in words),[2],antiprotozoan activities
neoantimycin L,cytotoxicity (in words),[1]; ref [16],excellent cytotoxicity
thermoactinoamide A,antiproliferative activity (in words),[1]; ref [17],moderate antiproliferative activity
